IC50 and T/C data for 4 compounds are collected here from ChEMBL document CHEMBL1129161, “Studies on the active metabolite (DU-86) of KW-2189, a novel derivative of duocarmycin” (Bioorg Med Chem Lett, 1996).

The subject of experiment [1] is HeLa. Briefly: Concentration required to inhibit the growth of HeLa S3 cells after 72 hours. The format is functional, cell-based. As to conditions: Homo sapiens.
Experiment [2] concerns HeLa. The experiment in a line: Concentration required to inhibit the growth of HeLa S3 cells after 1 hour. The class given is functional, cell-based. The settings on record: Homo sapiens.
For experiment [3], the system named is Sarcoma-180. The experiment in a line: Antitumor activity expressed as T/C at an intravenous dose of 1.0 mg/kg in mice implanted subcutaneously with murine sarcoma 180 cells. The class given is functional, Mus musculus.
Experiment [4] has as its system Sarcoma-180. Briefly: Antitumor activity expressed as T/C at an intravenous dose of 0.13 mg/kg in mice implanted subcutaneously with murine sarcoma 180 cells. The class given is functional, Mus musculus.
The test system of experiment [5] is Sarcoma-180. Briefly: Antitumor activity expressed as T/C at an intravenous dose of 8.0 mg/kg in mice implanted subcutaneously with murine sarcoma 180 cells. The class given is functional, Mus musculus.

The structures appear in SMILES notation.

As to `COC(=O)c1c(C)[nH]c2c1[C@@]13C[C@@H]1Cn1c(O)c4nc5c(OC)c(OC)c(OC)cc5c-4c(c13)C2=O`, the figures for the IC50 in the experiment on HeLa [1] and in the experiment with HeLa [2] were 6.6 nM and 36 nM, respectively.
For the compound `COC(=O)c1c2c(n(C)c1C)C(=O)C=C1N(C(=O)c3cc4cc(OC)c(OC)c(OC)c4[nH]3)C[C@H]3C[C@]123`, the IC50 with HeLa [1] is 0.069 nM; in the experiment on HeLa [2] it was 1.4 nM. Also, in the experiment on Sarcoma-180 [3], the T/C was 0.22.
For the compound `COC(=O)c1c(C)[nH]c2c1[C@@]13C[C@@H]1CN(C(=O)c1cc4cc(OC)c(OC)c(OC)c4[nH]1)C3=CC2=O`, in the experiment with Sarcoma-180 [4], the T/C is reported as 0.18.
With `COC(=O)c1c2c(n(C)c1C)C(=O)C=C1N(C(=O)c3cc4cc(OC)c(OC)c(OC)c4n3C)C[C@H]3C[C@]123`, the T/C in the experiment on Sarcoma-180 [5] is recorded as 0.96. For the same compound, the IC50 was 230 nM with HeLa [1] and 890 nM in the experiment with HeLa [2].
